Assay results published in patent US20030118553A1, “Vector constructs for gene-therapy mediated radionuclide therapy of undifferentiated and medullary thyroid carcinomas and non-thyroidal tumours and metastases mediated thereof” (priority 2000, published 2003).
Like-named read-outs stand apart in the source and are kept apart here.

Experiments:
[1] = system: tumor cell lines stably transfected with the NIS gene (K1, B-CPAP, 8505-C, SW480, DBTRG); test: In vitro radionuclide uptake in tumor cell lines stably transfected with the NIS gene; format: cell-based; settings: for radionuclide uptake in control cells: corresponding control cells, not NIS-transfected; for radionuclide uptake in tumor cell lines transfected with NIS: stably transfected K1, B-CPAP, 8505-C, SW480, DBTRG
Description: FIG. 5A depicts in vitro results of the radionuclide uptake of I-125, Tc-99m-pertechnetate, and At-211 in tumor cell lines stably transfected with the NIS gene as compared to the corresponding control cells: K1 papillary thyroid carcinoma ECACC #92030501, B-CPAP papillary thyroid carcinoma DSMZ #ACC273, 8505-C anaplastic thyroid carcinoma DSMZ #ACC219, SW480 colon carcinoma DSMZ #ACC313, DBTRG glioblastoma DSMZ #ACC359.

[2] = system: tumor cells of a thyroid carcinoma cell line (K1) transfected with hNIS
Description: After a tumor growth for 3 weeks scintigraphic pictures were taken ventrally by means of scintiscanning (gamma camera ZLC370, Siemens) 3 and 24 h following the injection of 2 MBq I-123, 10 MBq Tc-99m-pertechnetate and 0.4 MBq At-211 (RVL=right-ventral-left).
The cDNAs of the therapeutic genes are amplified from human thyreocyte mRNA after reverse transcription by subsequent PCR with gene-specific primers, and the fragments thus obtained are subcloned in a cloning vector (e.g., pCRblunt, Invitrogen) in E. coli (K12 derivative). For this purpose, overlapping cDNA segments of the single genes are used, the fragments allowing the generation of full-length cDNAs due to their common restriction enzyme cleavage sites. The cDNAs are cloned into a vector for constitutive expression in mammalian cells (e.g., in pCIneo under control of the CMV promoter, Promega). The expression vectors with integrated cDNA (FIG. 7A, example) are used for transient transfection of different tumor cell lines (Fugen6, Roche) and for the generation of stably transfected cell lines by antibiotic selection (e.g., G418 for pCIneo). Radionuclide uptake measurements ([I-125], [At-211], [Tc-99m], [Re-188]) with cell cultures (FIGS. 5 and 6) are performed according to the method of Weiss et al. 1984. To establish an animal model stably transfected tumor cell lines and the corresponding control cells, respectively, are subcutaneously injected into nude NMRI mice (nu/nu). After tumor growth in the course of 3-4 weeks and application of different radionuclides (i. a., [I-123], [At-211], [Tc-99m]) sequential scintiscans are taken with a gamma camera and organ distribution over region of interest (ROI) analyses determined (FIG. 4).

[3] = system: stably transfected tumor cell lines (K1-NIS, SW480-NIS); test: At-211 transport in vitro: Na+ dependency and perchlorate inhibition; format: cell-based
Description: FIG. 6A depicts the dependency upon Na^+ of the At-211 transport in vitro in stably transfected tumor cell lines (K1-NIS, SW480-NIS), wherein NaCl has been iso-osmotically replaced by choline chloride.

[4] = system: transiently transfected tumor cell lines; test: I-125 uptake in transiently NIS-transfected tumor cell lines; format: cell-based; settings: also follicular thyroid carcinoma, HepG2, LN-Cap, A498, SK-Mel30, CCF-STTG1, TT
Description: In FIG. 5B the uptake of I-125 is additionally shown depending on a perchlorate blockage in transiently transfected tumor cell lines. […] The differences in the iodide uptake rates in different cell lines transfected with NIS are caused by the variable transfection efficiency of the distinct cell lines with the method used.

[5] = system: anaplastic thyroid cells transfected with NIS cDNA; settings: NIS-transfected tumor cells implanted into rats; cited from earlier work
[6] = scintigraphically, K1-NIS tumor, NMRI nude mouse, compared to muscle tissue
[7] = scintiscans 3 and 24 h after injection, K1-wt control tumor not shown

[At] [At-211]
radionuclide uptake in control cells [1]: no uptake | radionuclide uptake in tumor cell lines transfected with NIS [1]: highly significant uptake | enrichment of the tracer in the tumor transfected with NIS ([2]; mouse, in vivo): significant enrichment | higher uptake in the NIS tumor as compared to muscle tissue ([2]; mouse, in vivo): 10 fold | dependency upon Na+ of the transport ([3]; NaCl iso-osmotically replaced by choline chloride, K1-NIS, SW480-NIS): clear-cut dependency upon Na^+

[123IH] [I-123]
higher uptake in the NIS tumor as compared to muscle tissue [2, 6]: 60 fold | enrichment of the tracer in the tumor transfected with NIS [2, 7]: significant enrichment

[125IH] [I-125]
radionuclide uptake in control cells [1]: no uptake | radionuclide uptake in tumor cell lines transfected with NIS [1]: highly significant uptake | iodide uptake in transiently transfected tumor cell lines [4]: significant iodide uptake

[131IH] [I-131]
maximum level after [5]: 90 min

[O]=[99Tc](=[O])(=[O])[O-] [Tc-99m-pertechnetate]
radionuclide uptake in control cells [1]: no uptake | radionuclide uptake in tumor cell lines transfected with NIS [1]: highly significant uptake | higher uptake in the NIS tumor as compared to muscle tissue [2, 6]: 15 fold | enrichment of the tracer in the tumor transfected with NIS [2, 7]: significant enrichment

[O-][Cl+3]([O-])([O-])O [perchlorate]
inhibition of the astate transport ([3]; small perchlorate concentrations): clear inhibition
